Assay results: US20250032510A1, “AMORPHOUS SOLID DISPERSION GANAXOLONE FORMULATION” (MARINUS PHARMACEUTICALS, INC., priority 2021, published 2025)

Assay: DSC miscibility screening of polymer-surfactant-ganaxolone combinations
Assay type: physicochemical
Conditions: added to all formulations

Effect of addition on crystallinity of the ganaxolone: increased crystallinity
Structure (SMILES): CCCC(CCC)C(=O)O [Valproic acid]
